Among the data in patent US12486253B2, “Therapeutics for the degradation of mutant BRAF” (C4 THERAPEUTICS, INC., priority 2021, dated 2025) are DC50 and Emax values, retold here.

By DC50 is commonly meant the concentration giving 50% degradation. By Emax is commonly meant the size of the effect at its maximum, as opposed to the concentration needed.

Where a name gives a salt, the structure may show the parent alone. Read-outs that look alike come from different tables or passages of the source.

The target in the test is BRAF V600E (Homo sapiens, UniProt P15056, V600E). As to the kind of experiment: HiBiT cellular BRAF^V600E degradation assay. It counts as cell-based. As to conditions: for DC50: concentration at which 50% of total cellular BRAF^V600E is degraded; for Emax: read-out: HiBit 24 h Emax. In general terms: With HiBiT, luminescence reflects the tagged protein that the partner subunit can reach.

[1] abbreviates: A375.10 cells, 24 h, residual protein remaining in the cell.

BRAF V600E, sequence (P15056 whole entry V600E): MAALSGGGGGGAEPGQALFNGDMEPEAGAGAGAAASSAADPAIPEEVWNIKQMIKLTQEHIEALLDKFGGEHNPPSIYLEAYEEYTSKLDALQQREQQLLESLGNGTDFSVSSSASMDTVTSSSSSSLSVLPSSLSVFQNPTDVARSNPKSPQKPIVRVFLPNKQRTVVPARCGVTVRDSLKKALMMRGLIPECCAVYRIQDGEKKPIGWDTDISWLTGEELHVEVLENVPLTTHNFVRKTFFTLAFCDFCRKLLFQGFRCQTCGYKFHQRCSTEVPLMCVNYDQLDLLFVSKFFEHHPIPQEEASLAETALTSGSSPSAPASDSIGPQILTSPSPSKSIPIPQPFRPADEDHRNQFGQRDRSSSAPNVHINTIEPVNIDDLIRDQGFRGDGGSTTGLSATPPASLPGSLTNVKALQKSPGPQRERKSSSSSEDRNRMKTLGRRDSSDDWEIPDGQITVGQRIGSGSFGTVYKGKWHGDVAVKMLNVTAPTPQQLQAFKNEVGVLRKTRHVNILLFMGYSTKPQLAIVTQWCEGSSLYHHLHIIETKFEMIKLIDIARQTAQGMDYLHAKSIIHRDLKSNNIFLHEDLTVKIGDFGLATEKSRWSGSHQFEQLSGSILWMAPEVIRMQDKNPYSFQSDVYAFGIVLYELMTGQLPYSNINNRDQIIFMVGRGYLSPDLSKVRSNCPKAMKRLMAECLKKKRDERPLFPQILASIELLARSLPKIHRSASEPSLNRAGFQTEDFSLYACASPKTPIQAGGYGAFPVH

As to `CCN(C)S(=O)(=O)Nc1ccc(F)c(Oc2ccc3ncn(C4CC5(CCN(C(=O)NC6CCN(c7ccc(NC8CCC(=O)NC8=O)cc7F)CC6)CC5)C4)c(=O)c3c2)c1C#N` (stereo not shown) [Example 37, 2-[6-[2-cyano-3-[[ethyl(methyl)sulfamoyl]amino]-6-fluorophenoxy]-4-oxoquinazolin-3-yl]-N-[1-[4-[(2,6-dioxopiperidin-3-yl)amino]-2-fluorophenyl]piperidin-4-yl]-7-azaspiro[3.5]nonane-7-carboxamide], the Emax stood at 16.2%. Also, half-maximal degradation (A375.10 cells, 24 h) (DC50) was put at 48.4 nM.

The molecule `CCN(C)S(=O)(=O)Nc1ccc(F)c(Oc2ccc3ncn([C@H]4COC5(CCN(C(=O)CN6CC(c7ccc8c(C9CCC(=O)NC9=O)nn(C)c8c7)C6)CC5)C4)c(=O)c3c2)c1C#N` (stereo partly drawn) [Example 171, (3R)-3-[6-[2-cyano-3-[[ethyl(methyl)sulfamoyl]amino]-6-fluorophenoxy]-4-oxoquinazolin-3-yl]-8-[2-[3-[3-(2,6-dioxopiperidin-3-yl)-1-methylindazol-6-yl]azetidin-1-yl]acetyl]-1-oxa-8-azaspiro[4.5]decane] gave a DC50 (A375.10 cells, 24 h) of 30.7 nM. In addition, under setting [1], the Emax is 7.11%.

As to `N#Cc1c(NS(=O)(=O)N2CCCCC2)ccc(F)c1Oc1ccc2ncn(-c3cnc(N4CCN(C(=O)CN5CCC(c6ccc(N[C@H]7CCC(=O)NC7=O)cc6F)CC5)CC4)nc3)c(=O)c2c1` [Example 113, N-[2-cyano-3-[3-[2-[4-[2-[4-[4-[[(3S)-2,6-dioxopiperidin-3-yl]amino]-2-fluorophenyl]piperidin-1-yl]acetyl]piperazin-1-yl]pyrimidin-5-yl]-4-oxoquinazolin-6-yl]oxy-4-fluorophenyl]piperidine-1-sulfonamide], half-maximal degradation (A375.10 cells, 24 h) (DC50) was put at 29.7 nM. Under setting [1], the Emax worked out at 11.1%.

`CCN(C)S(=O)(=O)Nc1ccc(F)c(Oc2ccc3ncn([C@H]4COC5(CCN(C(=O)CC6(O)CCN(c7cc8c(cc7F)c(N7CCC(=O)NC7=O)nn8C)CC6)CC5)C4)c(=O)c3c2O)c1C#N` [Example 186, (3R)-3-[6-[2-cyano-3-[[ethyl(methyl)sulfamoyl]amino]-6-fluorophenoxy]-5-hydroxy-4-oxoquinazolin-3-yl]-8-[2-[1-[3-(2,4-dioxo-1,3-diazinan-1-yl)-5-fluoro-1-methylindazol-6-yl]-4-hydroxypiperidin-4-yl]acetyl]-1-oxa-8-azaspiro[4.5]decane] came in with a DC50 (A375.10 cells, 24 h) of 16.3 nM. Under setting [1], the Emax was found to be 25.1%.

Consider `N#Cc1c(NS(=O)(=O)C2CCC2)ccc(F)c1Oc1ccc2ncn(-c3cnc(N4CCN(C(=O)CN5CCC(c6ccc(N[C@H]7CCC(=O)NC7=O)cc6F)CC5)CC4)nc3)c(=O)c2c1` [Example 132, N-[2-cyano-3-[3-[2-[4-[2-[4-[4-[[(3S)-2,6-dioxopiperidin-3-yl]amino]-2-fluorophenyl]piperidin-1-yl]acetyl]piperazin-1-yl]pyrimidin-5-yl]-4-oxoquinazolin-6-yl]oxy-4-fluorophenyl]cyclobutanesulfonamide], for which it took 13.8 nM to reach half-maximal degradation (A375.10 cells, 24 h) (DC50). Also, under setting [1], the maximal response (Emax) was found to be 11.1%.

Turning to `CCN(C)S(=O)(=O)Nc1ccc(F)c(Oc2ccc3ncn(C4COC5(CCN(C(=O)CN6CCC(c7ccc(NC8CCC(=O)NC8=O)cc7F)CC6)CC5)C4)c(=O)c3c2Br)c1C#N` (stereo not shown) [Example 68, 3-[5-bromo-6-[2-cyano-3-[[ethyl(methyl)sulfamoyl]amino]-6-fluorophenoxy]-4-oxoquinazolin-3-yl]-8-[2-[4-[4-[(2,6-dioxopiperidin-3-yl)amino]-2-fluorophenyl]piperidin-1-yl]acetyl]-1-oxa-8-azaspiro[4.5]decane], it took 8.77 nM to reach half-maximal degradation (A375.10 cells, 24 h) (DC50). For the same molecule, the Emax under setting [1] stood at 8.05%.

Regarding `CCN(C)S(=O)(=O)Nc1ccc(F)c(Oc2ccc3ncn(CCCC4CCN(C(=O)CN5CCC(c6ccc(NC7CCC(=O)NC7=O)cc6)CC5)CC4)c(=O)c3c2)c1C#N` (stereo not shown) [Example 4, 6-[2-cyano-3-[[ethyl(methyl)sulfamoyl]amino]-6-fluorophenoxy]-3-[3-[1-[2-[4-[4-[(2,6-dioxopiperidin-3-yl)amino]phenyl]piperidin-1-yl]acetyl]piperidin-4-yl]propyl]-4-oxoquinazoline], for the setting “A375.10 cells, 24 h”, it took 28.6 nM to reach half-maximal degradation (DC50). For the same molecule, the Emax under setting [1] was determined as 10.8%.

`N#Cc1c(NS(=O)(=O)C2CCCC2)ccc(F)c1Oc1ccc2ncn([C@H]3COC4(CCN(C(=O)CN5CCC(c6ccc(NC7CCC(=O)NC7=O)cc6F)CC5)CC4)C3)c(=O)c2c1` (stereo partly drawn) [Example 56, N-[2-cyano-3-[3-[(3R)-8-[2-[4-[4-[(2,6-dioxopiperidin-3-yl)amino]-2-fluorophenyl]piperidin-1-yl]acetyl]-1-oxa-8-azaspiro[4.5]decan-3-yl]-4-oxoquinazolin-6-yl]oxy-4-fluorophenyl]cyclopentanesulfonamide] showed a 50% degradation concentration (DC50) (A375.10 cells, 24 h) of 31.6 nM. The Emax under setting [1] was 11.6%.

As for `CCN(C)S(=O)(=O)Nc1ccc(F)c(Oc2ccc3ncn([C@H]4CCC5(CCN(C(=O)CN6CCN(c7ccc(NC8CCC(=O)NC8=O)cc7F)CC6)CC5)C4)c(=O)c3c2)c1C#N` (stereo partly drawn) [Example 48, 6-[2-cyano-3-[[ethyl(methyl)sulfamoyl]amino]-6-fluorophenoxy]-3-[(3S)-8-[2-[4-[4-[(2,6-dioxopiperidin-3-yl)amino]-2-fluorophenyl]piperazin-1-yl]acetyl]-8-azaspiro[4.5]decan-3-yl]-4-oxoquinazoline], for the setting “A375.10 cells, 24 h”, the DC50 worked out at 34.5 nM. Further, the Emax under setting [1] came to 15.6%.

The molecule `CO[C@@H]1CCN(S(=O)(=O)Nc2ccc(F)c(Oc3ccc4ncn(-c5cnc(N6CCN(C(=O)CN7CCC(c8ccc(N[C@@H]9CCC(=O)NC9=O)cc8F)CC7)CC6)nc5)c(=O)c4c3)c2C#N)C1` [Example 97, (3R)—N-[2-cyano-3-[3-[2-[4-[2-[4-[4-[[(3R)-2,6-dioxopiperidin-3-yl]amino]-2-fluorophenyl]piperidin-1-yl]acetyl]piperazin-1-yl]pyrimidin-5-yl]-4-oxoquinazolin-6-yl]oxy-4-fluorophenyl]-3-methoxypyrrolidine-1-sulfonamide] showed a DC50 (A375.10 cells, 24 h) of 8.41 nM. Further, the maximal effect (Emax) under setting [1] was determined as 10.6%.

In turn, `CCN(C)S(=O)(=O)Nc1ccc(F)c(Oc2ccc3ncn(C4CC5(CCN(C(=O)CN6CCC(c7ccc8c(N9CCC(=O)NC9=O)nn(C)c8c7)CC6)CC5)C4)c(=O)c3c2)c1C#N` [Example 147, 6-[2-cyano-3-[[ethyl(methyl)sulfamoyl]amino]-6-fluorophenoxy]-3-[7-[2-[4-[3-(2,4-dioxo-1,3-diazinan-1-yl)-1-methylindazol-6-yl]piperidin-1-yl]acetyl]-7-azaspiro[3.5]nonan-2-yl]-4-oxoquinazoline] came in with a DC50 (A375.10 cells, 24 h) of 26.9 nM. For the same molecule, under setting [1], the Emax is 9.49%.

In turn, `CCN(C)S(=O)(=O)Nc1ccc(F)c(Oc2ccc3ncn([C@H]4CCC5(CCN(C(=O)CN6CCC(c7ccc(NC8CCC(=O)NC8=O)cc7F)CC6)CC5)C4)c(=O)c3c2Cl)c1C#N` (single isomer, unassigned) [Example 79] yielded a DC50 (A375.10 cells, 24 h) of 20.1 nM. In addition, the Emax under setting [1] was found to be 12.9%.

`CCN(C)S(=O)(=O)Nc1ccc(F)c(Oc2ccc3ncc(OC[C@@H]4[C@H]5CN(C(=O)CN6CCC(c7ccc(NC8CCC(=O)NC8=O)cc7F)CC6)C[C@@H]45)nc3c2)c1C#N` (stereo partly drawn) [Example 217, 7-[2-cyano-3-[[ethyl(methyl)sulfamoyl]amino]-6-fluorophenoxy]-2-[[(1R,5S)-3-[2-[4-[4-[(2,6-dioxopiperidin-3-yl)amino]-2-fluorophenyl]piperidin-1-yl]acetyl]-3-azabicyclo[3.1.0]hexan-6-yl]methoxy]quinoxaline] returned a DC50 (A375.10 cells, 24 h) of 18 nM. In addition, the Emax under setting [1] was 8.83%.

For the molecule `N#Cc1c(NS(=O)(=O)N2CC[C@@H](F)C2)ccc(F)c1Oc1ccc2ncn(-c3cnc(N4CCN(C(=O)CN5CCC(c6ccc(N[C@H]7CCC(=O)NC7=O)cc6F)CC5)CC4)nc3)c(=O)c2c1` [Example 116, (3R)—N-[2-cyano-3-[3-[2-[4-[2-[4-[4-[[(3S)-2,6-dioxopiperidin-3-yl]amino]-2-fluorophenyl]piperidin-1-yl]acetyl]piperazin-1-yl]pyrimidin-5-yl]-4-oxoquinazolin-6-yl]oxy-4-fluorophenyl]-3-fluoropyrrolidine-1-sulfonamide], it took 17.1 nM to reach half-maximal degradation (A375.10 cells, 24 h) (DC50). The Emax under setting [1] came to 9.01%.

In turn, `N#Cc1c(NS(=O)(=O)C2CCCC2)ccc(F)c1Oc1ccc2ncn(CCC3CCN(C(=O)CN4CCC(c5ccc(NC6CCC(=O)NC6=O)cc5)CC4)CC3)c(=O)c2c1` (stereo not shown) [Example A3, N-[2-cyano-3-[3-[2-[1-[2-[4-[4-[(2,6-dioxo-3-piperidyl)amino]phenyl]-1-piperidyl]acetyl]-4-piperidyl]ethyl]-4-oxo-quinazolin-6-yl]oxy-4-fluoro-phenyl]cyclopentanesulfonamide 2,2,2-trifluoroacetic acid salt] gave a DC50 (A375.10 cells, 24 h) of 242 nM. Also, the Emax under setting [1] amounted to 24%.

Turning to `COC1CN(S(=O)(=O)Nc2ccc(F)c(Oc3ccc4ncn([C@H]5COC6(CCN(C(=O)CC7(O)CCN(c8cc9c(cc8F)c(N8CCC(=O)NC8=O)nn9C)CC7)CC6)C5)c(=O)c4c3)c2C#N)C1` [Example 193, N-[2-cyano-3-[3-[(3R)-8-[2-[1-[3-(2,4-dioxo-1,3-diazinan-1-yl)-5-fluoro-1-methylindazol-6-yl]-4-hydroxypiperidin-4-yl]acetyl]-1-oxa-8-azaspiro[4.5]decan-3-yl]-4-oxoquinazolin-6-yl]oxy-4-fluorophenyl]-3-methoxyazetidine-1-sulfonamide], under “A375.10 cells, 24 h”, the DC50 worked out at 142 nM. The Emax under setting [1] was determined as 33.8%.

`CCN(C)S(=O)(=O)Nc1ccc(F)c(Oc2ccc3ncn([C@H]4COC5(CCN(C(=O)CC6CCN(c7ccc8c(C9CCC(=O)NC9=O)nn(C)c8c7)CC6)CC5)C4)c(=O)c3c2)c1C#N` (stereo partly drawn) [Example 151, (3R)-3-[6-[2-cyano-3-[[ethyl(methyl)sulfamoyl]amino]-6-fluorophenoxy]-4-oxoquinazolin-3-yl]-8-[2-[1-[3-(2,6-dioxopiperidin-3-yl)-1-methylindazol-6-yl]piperidin-4-yl]acetyl]-1-oxa-8-azaspiro[4.5]decane] displayed a DC50 (A375.10 cells, 24 h) of 18.7 nM. Moreover, the Emax under setting [1] was 24.6%.
